Columns and labels:
[1] = Plasma compound concentrations at trough in the KCM study; type: in vivo, mice; conditions: day 12, KCM model
CCR4 = biological target: T1, CCR4 (Homo sapiens, UniProt P51679); test: CCL22 chemotaxis, human cells; type: cell-based
T1 sequence (P51679 1-360): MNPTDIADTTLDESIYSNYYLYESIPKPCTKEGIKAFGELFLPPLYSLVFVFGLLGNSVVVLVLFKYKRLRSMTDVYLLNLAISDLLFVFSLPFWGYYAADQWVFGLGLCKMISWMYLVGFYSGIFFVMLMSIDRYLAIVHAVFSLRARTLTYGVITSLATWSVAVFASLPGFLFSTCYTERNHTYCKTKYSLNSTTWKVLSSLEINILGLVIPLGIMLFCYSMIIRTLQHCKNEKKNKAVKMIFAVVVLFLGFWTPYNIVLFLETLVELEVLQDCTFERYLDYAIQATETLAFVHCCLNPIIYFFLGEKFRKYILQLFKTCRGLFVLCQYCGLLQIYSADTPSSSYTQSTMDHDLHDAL

mCCR4 [2] = biological target: T2, mCCR4 (Mus musculus, UniProt P51680); test: CCL22 chemotaxis, mouse CCR4 cells; type: cell-based; conditions: Mouse mCCR4-Baf3 cells
T2 sequence (P51680 1-360): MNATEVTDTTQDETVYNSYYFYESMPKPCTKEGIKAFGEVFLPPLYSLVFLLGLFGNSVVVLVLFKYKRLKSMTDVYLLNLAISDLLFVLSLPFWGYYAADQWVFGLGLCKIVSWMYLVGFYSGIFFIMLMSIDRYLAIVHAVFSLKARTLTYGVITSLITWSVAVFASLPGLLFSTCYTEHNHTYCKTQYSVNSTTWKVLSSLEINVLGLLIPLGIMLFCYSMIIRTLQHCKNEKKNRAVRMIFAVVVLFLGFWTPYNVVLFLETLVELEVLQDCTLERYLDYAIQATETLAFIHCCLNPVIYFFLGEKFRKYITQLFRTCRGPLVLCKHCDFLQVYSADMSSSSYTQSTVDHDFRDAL

mCCR4 [3] = biological target: T2, mCCR4; test: 125I-CCL17 binding, mouse CCR4 cells; conditions: Mouse mCCR4-293 cells, buffer
CXCR7 = CXCR7 (Homo sapiens, UniProt P25106); test: Compound 1 selectivity panel, buffer IC50; type: cell-based; conditions: Receptor CXCR7
Method: (§1) The selectivity of Compound 1 was tested by determining the IC50 value against a diverse panel of receptors, enzymes, and ion channels. […] See, Table 1.

CCR1 = biological target: T3, CCR1 (Homo sapiens, UniProt P32246); test: Compound 1 selectivity panel, buffer IC50; type: cell-based; conditions: Receptor CCR1
T3 sequence (P32246 1-355): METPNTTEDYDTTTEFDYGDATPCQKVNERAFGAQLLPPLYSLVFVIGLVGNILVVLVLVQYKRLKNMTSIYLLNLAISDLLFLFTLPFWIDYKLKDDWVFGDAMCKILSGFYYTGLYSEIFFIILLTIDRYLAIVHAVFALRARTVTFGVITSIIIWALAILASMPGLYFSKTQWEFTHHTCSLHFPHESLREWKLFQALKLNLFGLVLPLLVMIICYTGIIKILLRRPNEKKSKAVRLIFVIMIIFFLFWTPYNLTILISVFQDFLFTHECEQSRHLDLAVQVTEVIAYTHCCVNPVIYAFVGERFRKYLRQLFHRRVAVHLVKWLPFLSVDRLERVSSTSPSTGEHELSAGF
Method: as §1

Duffy = biological target: T4, Duffy (Homo sapiens, UniProt Q16570); test: Compound 1 selectivity panel, buffer IC50; type: cell-based; conditions: Receptor Duffy
T4 sequence (Q16570 1-336): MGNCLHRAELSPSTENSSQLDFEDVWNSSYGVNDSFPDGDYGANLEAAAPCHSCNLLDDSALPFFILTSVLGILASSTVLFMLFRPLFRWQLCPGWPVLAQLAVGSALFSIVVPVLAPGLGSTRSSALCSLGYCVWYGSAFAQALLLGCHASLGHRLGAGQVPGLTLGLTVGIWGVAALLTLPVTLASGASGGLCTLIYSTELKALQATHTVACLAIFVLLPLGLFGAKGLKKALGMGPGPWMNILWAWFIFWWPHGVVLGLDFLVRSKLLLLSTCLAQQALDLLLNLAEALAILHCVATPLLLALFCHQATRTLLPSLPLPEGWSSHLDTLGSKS
Method: as §1

CXCR4 = CXCR4 (Homo sapiens, UniProt P61073); test: Compound 1 selectivity panel, buffer IC50; type: cell-based; conditions: Receptor CXCR4
Method: as §1

CCR9 = biological target: T5, CCR9 (Homo sapiens, UniProt P51686); test: Compound 1 selectivity panel, buffer IC50; type: cell-based; conditions: Receptor CCR9
T5 sequence (P51686 1-369): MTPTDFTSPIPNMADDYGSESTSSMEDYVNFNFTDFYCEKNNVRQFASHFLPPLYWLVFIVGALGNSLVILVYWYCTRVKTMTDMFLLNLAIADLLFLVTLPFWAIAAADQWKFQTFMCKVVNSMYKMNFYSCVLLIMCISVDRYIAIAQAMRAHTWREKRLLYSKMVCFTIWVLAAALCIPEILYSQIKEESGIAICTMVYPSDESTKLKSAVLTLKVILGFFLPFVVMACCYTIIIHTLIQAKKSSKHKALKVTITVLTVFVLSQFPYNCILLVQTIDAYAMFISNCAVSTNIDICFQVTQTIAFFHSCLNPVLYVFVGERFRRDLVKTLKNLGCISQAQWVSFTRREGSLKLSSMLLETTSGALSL
Method: as §1

[4] = Compound 1 selectivity panel, buffer IC50; type: cell-based; conditions: Receptor CCR12
Method: as §1

CXCR6 = CXCR6 (Homo sapiens, UniProt O00574); test: Compound 1 selectivity panel, buffer IC50; type: cell-based; conditions: Receptor CXCR6
Method: as §1

CCR10 = biological target: T6, CCR10 (Homo sapiens, UniProt P46092); test: Compound 1 selectivity panel, buffer IC50; type: cell-based; conditions: Receptor CCR10
T6 sequence (P46092 1-362): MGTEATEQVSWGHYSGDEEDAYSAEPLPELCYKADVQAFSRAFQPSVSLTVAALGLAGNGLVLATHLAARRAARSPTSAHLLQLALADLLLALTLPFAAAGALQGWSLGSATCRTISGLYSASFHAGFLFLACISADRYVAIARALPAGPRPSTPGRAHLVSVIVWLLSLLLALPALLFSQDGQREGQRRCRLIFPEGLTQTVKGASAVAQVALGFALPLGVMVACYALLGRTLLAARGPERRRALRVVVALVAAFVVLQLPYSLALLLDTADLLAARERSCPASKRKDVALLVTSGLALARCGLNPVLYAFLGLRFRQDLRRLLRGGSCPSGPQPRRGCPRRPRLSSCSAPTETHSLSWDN
Method: as §1

Sequence of CXCR7 (P25106 whole entry, species assumed): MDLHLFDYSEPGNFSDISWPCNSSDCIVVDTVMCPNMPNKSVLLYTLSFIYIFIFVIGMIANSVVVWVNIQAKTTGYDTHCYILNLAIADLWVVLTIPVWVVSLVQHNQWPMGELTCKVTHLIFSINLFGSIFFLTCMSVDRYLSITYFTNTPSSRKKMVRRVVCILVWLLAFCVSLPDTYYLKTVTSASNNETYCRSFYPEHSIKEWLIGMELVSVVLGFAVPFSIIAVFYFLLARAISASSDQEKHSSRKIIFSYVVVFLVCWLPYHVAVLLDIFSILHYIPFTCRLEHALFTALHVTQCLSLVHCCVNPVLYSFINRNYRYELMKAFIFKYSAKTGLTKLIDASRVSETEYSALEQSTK
Sequence of CXCR6 (O00574 whole entry, species assumed): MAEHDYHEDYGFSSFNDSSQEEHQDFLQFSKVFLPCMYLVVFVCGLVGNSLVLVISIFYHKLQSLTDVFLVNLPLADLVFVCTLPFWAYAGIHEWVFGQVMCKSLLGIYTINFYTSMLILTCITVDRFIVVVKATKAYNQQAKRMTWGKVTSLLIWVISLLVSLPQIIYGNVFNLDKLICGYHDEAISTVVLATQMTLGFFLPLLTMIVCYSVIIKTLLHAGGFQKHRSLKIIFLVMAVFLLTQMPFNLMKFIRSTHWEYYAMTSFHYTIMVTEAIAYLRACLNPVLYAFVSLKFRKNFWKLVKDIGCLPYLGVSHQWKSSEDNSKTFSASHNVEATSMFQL
Sequence of CXCR4 (P61073 whole entry, species assumed): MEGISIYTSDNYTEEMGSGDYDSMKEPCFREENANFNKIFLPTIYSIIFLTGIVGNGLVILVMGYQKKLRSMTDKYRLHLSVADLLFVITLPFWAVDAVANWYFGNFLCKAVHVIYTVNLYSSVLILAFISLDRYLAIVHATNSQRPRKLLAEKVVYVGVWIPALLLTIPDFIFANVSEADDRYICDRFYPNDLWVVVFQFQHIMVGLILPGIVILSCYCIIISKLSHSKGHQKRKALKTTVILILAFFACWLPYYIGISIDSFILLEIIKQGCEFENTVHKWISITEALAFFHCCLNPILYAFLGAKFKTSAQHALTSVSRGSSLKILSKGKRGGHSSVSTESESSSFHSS

SMILES: C[C@@H](Nc1cc(C2CCN([C@H]3CCCN(CCC(=O)O)C3)CC2)ccc1Cl)c1ccc(Cl)cc1Cl [Compound 1]
- Plasma compound concentrations at trough [1]: Adequate compound levels
- Chemotaxis A2 (CCR4; Human CEM cells, 100% serum): 20 nM
- Chemotaxis A2 (CCR4; Human CEM cells, buffer): 2 nM
- Chemotaxis A2 (CCR4; Human lymphocytes, 100% serum): 20 nM
- Chemotaxis A2 (CCR4; Human lymphocytes, buffer): 10 nM
- Chemotaxis A2 (mCCR4 [2]; 100% serum): 60 nM
- Chemotaxis A2 (mCCR4 [2]; buffer): 4 nM
- IC50 (mCCR4 [3]): 0.027 µM
- IC50 (CXCR7): > 10 µM
- IC50 (CCR1): > 10 µM
- IC50 (Duffy): > 10 µM
- IC50 (CXCR4): > 10 µM
- IC50 (CCR9): > 10 µM
- IC50 [4]: > 10 µM
- IC50 (CXCR6): > 10 µM
- IC50 (CCR10): > 10 µM

From patent US12011439B2, “Combination therapy using C—C chemokine receptor 4 (CCR4) antagonists and one or more immune checkpoint inhibitors” (CHEMOCENTRYX, INC., priority 2018, dated 2024)
